Earlier results in patent US20120282337A1, “Modified Release Formulation” (BOEHRINGER INGELHEIM INTERNATIONAL GMBH, priority 2006, published 2012).
Where a name gives a salt, the structure may show the parent alone.

Experiments:
[1] = in vivo
dopamine D2 receptor = dopamine D2 receptor (Homo sapiens, UniProt P14416)
[2] = not given; remark: listed apart in the source

dopamine D2 receptor, sequence (P14416 whole entry, species assumed): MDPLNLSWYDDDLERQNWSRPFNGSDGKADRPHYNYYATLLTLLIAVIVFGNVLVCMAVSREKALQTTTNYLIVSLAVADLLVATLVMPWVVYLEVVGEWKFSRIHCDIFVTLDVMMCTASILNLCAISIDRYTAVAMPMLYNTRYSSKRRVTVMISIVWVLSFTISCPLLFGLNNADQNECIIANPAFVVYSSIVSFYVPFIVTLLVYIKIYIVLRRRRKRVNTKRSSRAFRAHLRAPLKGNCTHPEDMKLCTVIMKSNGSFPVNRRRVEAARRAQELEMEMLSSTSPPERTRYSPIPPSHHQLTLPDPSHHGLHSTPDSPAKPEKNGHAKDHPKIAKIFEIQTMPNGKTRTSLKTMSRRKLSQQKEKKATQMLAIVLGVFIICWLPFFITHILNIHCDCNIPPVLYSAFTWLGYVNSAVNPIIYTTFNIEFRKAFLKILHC

stability in solution (in solution)	stability in the solid state (solid state)	kinetics [1]	agonist type at dopamine D2 receptor (dopamine D2 receptor)	solubility in buffer media ([2]; between pH 2 and pH 7.4)	Water solubility ([2]; water)	SMILES
light sensitive	very stable	linear kinetics	full agonist			CCCN[C@H]1CCc2nc(N)sc2C1 [Pramipexole, (S)-2-Amino-4,5,6,7-tetrahydro-6-(propylamino)benzothiazole]
				above 10 mg/ml	more than 20 mg/ml	CCCN[C@H]1CCc2nc(N)sc2C1 [Pramipexole dihydrochloride monohydrate, pramipexole dihydrochloride monohydrate]
